The record followed here is BindingDB's records for patent US20250313563 (The Broad Institute, 2025).

In assay [1] the target is Glycogen synthase kinase-3 alpha (Homo sapiens, UniProt P49840). Put plainly: TR-FRET Assay. Summed up: (§1)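 TR-FRET readout: streptavidin-d2 (40 nM in added detection mix) plus Tb-anti-pSer641 Ab (2 nM in mix). Steps were 30 min compound preincubation, kinase reaction, then EDTA stop.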
A general note: In TR-FRET formats the signal depends on donor and acceptor labels being close together.

The target in assay [2] is Glycogen synthase kinase-3 beta (Homo sapiens, UniProt P49841). Kind of assay: TR-FRET Assay. In a few lines:
as §1

Several values for one entry are separate records, joined by “and”; a condition that tells them apart may be missing. Identical values can stand only once. Where only a bound is given, the exact number is not on record here.

Glycogen synthase kinase-3 beta, sequence (P49841 whole entry): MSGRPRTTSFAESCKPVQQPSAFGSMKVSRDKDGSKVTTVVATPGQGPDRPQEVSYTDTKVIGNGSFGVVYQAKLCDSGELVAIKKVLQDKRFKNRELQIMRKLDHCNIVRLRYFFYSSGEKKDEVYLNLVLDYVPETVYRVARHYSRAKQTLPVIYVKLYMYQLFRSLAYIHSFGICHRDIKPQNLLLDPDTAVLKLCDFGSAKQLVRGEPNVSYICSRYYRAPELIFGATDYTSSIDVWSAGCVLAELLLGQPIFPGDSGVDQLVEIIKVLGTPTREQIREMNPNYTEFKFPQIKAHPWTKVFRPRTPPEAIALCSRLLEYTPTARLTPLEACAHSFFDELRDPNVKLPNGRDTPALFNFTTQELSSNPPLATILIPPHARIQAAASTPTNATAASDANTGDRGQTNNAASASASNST
Glycogen synthase kinase-3 alpha, sequence (P49840 whole entry): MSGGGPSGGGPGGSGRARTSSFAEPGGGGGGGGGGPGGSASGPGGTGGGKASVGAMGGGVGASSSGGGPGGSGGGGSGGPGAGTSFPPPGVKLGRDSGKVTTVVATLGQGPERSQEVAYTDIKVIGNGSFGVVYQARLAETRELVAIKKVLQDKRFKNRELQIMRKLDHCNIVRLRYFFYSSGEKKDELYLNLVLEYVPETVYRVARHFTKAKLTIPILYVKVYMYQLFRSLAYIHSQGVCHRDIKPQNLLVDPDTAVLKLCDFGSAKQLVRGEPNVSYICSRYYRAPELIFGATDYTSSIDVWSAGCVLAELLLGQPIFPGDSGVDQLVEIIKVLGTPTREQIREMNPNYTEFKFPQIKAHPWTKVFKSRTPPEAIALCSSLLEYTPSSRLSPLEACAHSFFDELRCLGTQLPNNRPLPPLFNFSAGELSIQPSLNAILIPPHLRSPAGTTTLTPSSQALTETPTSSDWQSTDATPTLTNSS

One may read the IC50 as the concentration needed to halve the response being measured. A higher IC50 goes with weaker potency in that assay. Take `CC1(C)CC(=O)C2=C(C1)NC1=C(CN=N1)[C@]21CCN(S(=O)(=O)c2cccc(F)c2)C1` [US20250313563, Compound 943488]: the IC50 in assay [1] and in assay [2] was < 100 nM in each case.
For `Cc1cccc(S(=O)(=O)N2CC[C@@]3(C2)C2=C(N=NC2)NC2=C3C(=O)CC(C)(C)C2)c1` [US20250313563, Compound 943489], the IC50 in assay [1] and in assay [2] was < 100 nM each time.
In the case of `CCC1(c2cccc(-c3cnnc(C)c3)c2)C2=CN=NC2NC2=C1C(=O)NC(C)(C)C2` (stereo not drawn) [US20250313563, Compound 943496], the IC50 was < 100 nM in assay [1] and 1000 to 5000 nM in assay [2].
As for `CC[C@]1(c2cccc(-c3cc(C)ncc3C)c2)C2=CN=NC2NC2=C1C(=O)CC(C)(C)C2` (stereo partly drawn) [US20250313563, Compound 943514], the IC50 in assay [1] and in assay [2] was < 100 nM in each case.
Take `CC[C@@]1(c2cccc(-c3cc(C)ncc3C)c2)C2=CN=NC2NC2=C1C(=O)CC(C)(C)C2` (stereo partly drawn) [US20250313563, Compound 943515]: the IC50 in assay [1] was 1000 to 5000 nM; in assay [2], > 5000 nM.
The like results for `CC[C@@]1(c2cccc(-c3ccncc3F)c2)C2=CN=NC2NC2=C1C(=O)CC(C)(C)C2` (stereo partly drawn) [US20250313563, Compound 943519] were, in that order, 100 to 1000 nM and 1000 to 5000 nM.
As for `CCC1(c2cccc(-c3cnc(C)n3C)c2)C2=CN=NC2NC2=C1C(=O)CC(C)(C)C2` (stereo not drawn) [US20250313563, Compound 943531], the IC50 was < 100 nM and 100 to 1000 nM in assay [1]; 100 to 1000 nM and > 5000 nM in assay [2].
For `CCC1(c2cccc(-c3ncnn3C)c2)C2=CN=NC2NC2=C1C(=O)CC(C)(C)C2` (stereo not drawn) [US20250313563, Compound 943532], the IC50 in assay [1] was < 100 nM; in assay [2], 100 to 1000 nM.
Turning to `CCC1(c2cccc(-c3cncn3C)c2)C2=CN=NC2NC2=C1C(=O)CC(C)(C)C2` (stereo not drawn) [US20250313563, Compound 943533], the IC50 in assay [1] and in assay [2] was < 100 nM throughout.
With `CCC1(c2cccc(-c3ccnc4c3CCC4)c2)C2=CN=NC2NC2=C1C(=O)CC(C)(C)C2` (stereo not drawn) [US20250313563, Compound 943534], the IC50 in assay [1] and in assay [2] was < 100 nM in each case.
In the case of `CCC1(c2cccc(-c3cnc4n3CCCC4)c2)C2=CN=NC2NC2=C1C(=O)CC(C)(C)C2` (stereo not drawn) [US20250313563, Compound 943535], the IC50 in assay [1] and in assay [2] was < 100 nM in each case.
As to `CCC1(c2cccc(-c3ccnc(C(C)(C)O)c3)c2)C2=CN=NC2NC2=C1C(=O)CC(C)(C)C2` (stereo not drawn) [US20250313563, Compound 943536], the IC50 was < 100 nM in assay [1] and 1000 to 5000 nM in assay [2].
In the same order, the values of `CCC1(c2cccc(N(C)c3cc(C)ccn3)c2)C2=CN=NC2NC2=C1C(=O)CC(C)(C)C2` (stereo not drawn) [US20250313563, Compound 943537] are < 100 nM and 100 to 1000 nM.
Turning to `CCC1(c2cccc(N(C)c3cc(C)cc(C)n3)c2)C2=CN=NC2NC2=C1C(=O)CC(C)(C)C2` (stereo not drawn) [US20250313563, Compound 943538], the results for the IC50 in assay [1] and in assay [2] were < 100 nM and 100 to 1000 nM, respectively.
In the same order, the values of `CCC1(c2cccc(-c3ccncc3CO)c2)C2=CN=NC2NC2=C1C(=O)CC(C)(C)C2` (stereo not drawn) [US20250313563, Compound 943539] are < 100 nM and < 100 nM.
In the same order, the values of `CCC1(c2cccc(-c3ccnc(CO)c3)c2)C2=CN=NC2NC2=C1C(=O)CC(C)(C)C2` (stereo not drawn) [US20250313563, Compound 943540] are < 100 nM and 100 to 1000 nM.
In the same order, the values of `CC[C@@]1(c2cccc(S(=O)(=O)C3CCCCC3)c2)C2=CN=NC2NC2=C1C(=O)CC(C)(C)C2` (stereo partly drawn) [US20250313563, Compound 943541] are 100 to 1000 nM and 1000 to 5000 nM.
For the compound `CC[C@]1(c2cccc(S(=O)(=O)CCOC)c2)C2=CN=NC2NC2=C1C(=O)CC(C)(C)C2` (stereo partly drawn) [US20250313563, Compound 943542], the IC50 in assay [1] is < 100 nM and 100 to 1000 nM; in assay [2], < 100 nM and 1000 to 5000 nM.
Take `CC1(C)CC(=O)C2=C(C1)NC1=C(CN=N1)C21CN(S(=O)(=O)Cc2ccccc2)C1` [US20250313563, Compound 943543]: the IC50 in assay [1] and in assay [2] was < 100 nM each time.
In the case of `COCCN1CC2(C1)C1=C(N=NC1)NC1=C2C(=O)CC(C)(C)C1` [US20250313563, Compound 943544], the IC50 in assay [1] and in assay [2] was > 5000 nM throughout.
As for `CC1(C)CC(=O)C2=C(C1)NC1=C(CN=N1)C21CN(CC2CCOCC2)C1` [US20250313563, Compound 943545], the IC50 in assay [1] and in assay [2] was > 5000 nM each time.
In the case of `CC[C@@]1(c2cccc(S(=O)(=O)CCOC)c2)C2=CN=NC2NC2=C1C(=O)CC(C)(C)C2` (stereo partly drawn) [US20250313563, Compound 943546], the IC50 in assay [1] is 1000 to 5000 nM; in assay [2], > 5000 nM.
In the same order, the values of `CC1(C)CC(=O)C2=C(C1)NC1=C(CN=N1)C21CCC(n2cnnc2)CC1` (stereo not drawn) [US20250313563, Compound 943894] are < 100 nM and 100 to 1000 nM.
Turning to `Cc1noc(C2CCC3(CC2)C2=C(N=NC2)NC2=C3C(=O)CC(C)(C)C2)n1` (stereo not drawn) [US20250313563, Compound 943895], the IC50 in assay [1] and in assay [2] was 100 to 1000 nM throughout.
For `C[C@H]1C[C@@H]2C[C@@]3(C[C@@H]2C1)C1=CN=NC1NC1=C3C(=O)CC(C)(C)C1` (stereo partly drawn) [US20250313563, Compound 943896], the IC50 in assay [1] and in assay [2] was < 100 nM in each case.
As to `C[C@@H]1C[C@@H]2C[C@@]3(C[C@@H]2C1)C1=CN=NC1NC1=C3C(=O)CC(C)(C)C1` (stereo partly drawn) [US20250313563, Compound 943898], the IC50 in assay [1] and in assay [2] was < 100 nM throughout.
As to `CCC1(c2cccc(-c3cnn(C)c3)c2)C2=CN=NC2NC2=C1C(=O)NC(C)(C)C2` (stereo not drawn) [US20250313563, Compound 943912], the IC50 in assay [1] was < 100 nM; in assay [2], 1000 to 5000 nM.
The like results for `CC1(C)CC(=O)C2=C(C1)NC1=C(CN=N1)C21CN(CC2CCCC2)C1` [US20250313563, Compound 943914] were, in that order, > 5000 nM and > 5000 nM.
In the same order, the values of `CC[C@]1(c2cccc(-c3ccnc(C(F)F)c3)c2)C2=CN=NC2NC2=C1C(=O)CC(C)(C)C2` (stereo partly drawn) [US20250313563, Compound 943915] are > 5000 nM and > 5000 nM.
In the same order, the values of `CC[C@@]1(c2cccc(-c3ccnc(C)c3)c2)C2=C(N=NC2)NC2=C1C(=O)[C@H]1CC[C@@H]2C1` [US20250313563, Compound 943916] are < 100 nM and 100 to 1000 nM.
Consider `CC[C@]1(c2cccc(-c3ccnc(C)c3)c2)C2=C(N=NC2)NC2=C1C(=O)[C@H]1CC[C@@H]2C1` [US20250313563, Compound 943917], for which the IC50 in assay [1] is < 100 nM; in assay [2], 100 to 1000 nM.
In the same order, the values of `CC[C@]1(c2cccc(-c3ccncc3C(F)(F)F)c2)C2=CN=NC2NC2=C1C(=O)CC(C)(C)C2` (stereo partly drawn) [US20250313563, Compound 943918] are 100 to 1000 nM and 1000 to 5000 nM.
The like results for `CC[C@@]1(c2cccc(-c3ccnc(C(F)F)c3)c2)C2=CN=NC2NC2=C1C(=O)CC(C)(C)C2` (stereo partly drawn) [US20250313563, Compound 943919] were, in that order, < 100 nM and 100 to 1000 nM.
In the same order, the values of `CC[C@@]1(c2cccc(-c3ccnc(C)c3)c2)C2=C(N=NC2)NC2=C1C[C@@H]1CC[C@H]2C1` [US20250313563, Compound 943920] are 1000 to 5000 nM and > 5000 nM.
